Assay results from US6338854B1, “Photoaging skin-care preparation and method of treating wrinkled skin” (Pola Chemical Industries, Inc., priority 1996, dated 2002).

Assays:
Format in all cases: in vivo
Hartley guinea pigs [1] = test: Skin irritation test (24 hours' closed patch test)
Text: Skin irritation tests of benzyl ursolate, methoxybenzyl oleanolate, nitrobenzyl betulate, naphthylmethyl ursolate, diphenylmethyl oleanolate, benzoyl oleanolate, methoxybenzoyl betulate, and phenylpropionyl ursolate obtained in the above-described Production Examples were made using Hartley guinea pigs (300 to 500 g, female) as test animals.
For test groups each consisting of 6 guinea pigs, the hair on the back of each guinea pig was removed or shaven and on the hair-removed or shaven portion was applied a plastic adhesive plaster which a cloth patch of 15 mm in diameter impregnated with 50 mg of white vaseline containing a 10% by weight of one of the aromatic compound derivatives of triterpenoid obtained in the Production Examples described above was attached, and then 24 hours' closed patch test was performed. After the closed patch tests were completed, the resulting skin reactions after the removal of the plastic adhesive plasters were evaluated immediately (after 0 hour) and after 24 hours respectively, according to the evaluation criteria below and an average score was calculated based on the results obtained 6 animals in each test group.
(§1) 0: No skin reaction being observed
(§2) 1: Weak or unclearly bordered erythema
(§3) 3: Reaction accompanying edema
(§4) 4: Reaction of ulcer, necrosis, or the like
As a control, the above-described test and evaluation were conducted with only white vaseline.

[2] = test system: wrinkles on the back skin due to photoaging, hairless mice; test: UV wrinkle model amelioration test; conditions: 9 weeks, 10 mice; for Number of Mice (number) +: +: Wrinkle-ameliorating effect was observed; for Number of Mice (number) ±: ±: Slight wrinkle-ameliorating effect; for Number of Mice (number) −: −: No wrinkle-ameliorating effect
Method: UV wrinkle model amelioration tests were conducted with the benzyl ursolate, methoxybenzyl oleanolate, phenylbenzyl betulate, benzoyl oleanolate, methoxybenzoyl betulate, and phenylpropionyl ursolate obtained in the above described Production Examples on hairless mice (5-week old, female) as test animals.
UVB (60 mJ/cm^2) was irradiated to the back skin of each animal of a test group consisting of 10 hairless mice once a day in a frequency of 5 days a week and after 8 weeks formation of wrinkles on the back skin due to photoaging was confirmed. Thereafter, 100 μl of ethanol solutions containing the aromatic compound derivatives of triterpenoid obtained in the Production Examples in concentrations shown in Table 3 were applied thereon once a day in a frequency of 5 days a week. After 9 weeks from the initiation of applying, the degree of ameliorating wrinkles in the skin due to photoaging were evaluated with naked eyes according to the following evaluation criteria.
−: No wrinkle-ameliorating effect was observed.
±: Slight wrinkle-ameliorating effect was observed.
+: Wrinkle-ameliorating effect was observed.
For comparison, ethanol solutions containing of palmitoyl oleanolate or 2-ethylhexyl 2-ethylhexanoyl ursolate in 1% concentration, hitherto used as drugs having a photoaging inhibiting effect, and neat ethanol as a control were applied to hairless mice after UVB irradiation in the same manner as described above and wrinkle-ameliorating effects were evaluated, respectively.

Hartley guinea pigs [3] = test: Allergy test (maximization method); conditions: skin reaction 24 hours after patch removal, scale 0-4
Text: Allergy tests of benzyl ursolate, methoxybenzyl oleanolate, phenylbenzyl betulate, benzoyl oleanolate, methoxybenzoyl betulate, and phenylpropionyl ursolate obtained in the above-described Production Examples were made using Hartley guinea pigs (300 to 500 g, female) as test animals.
For test groups each consisting of 6 guinea pigs were applied each an aromatic compound derivative of triterpenoid to a concentration of 3 w/v % in olive oil, an aromatic compound derivative of triterpenoid to a concentration of 0.3 w/v % in olive oil, and neat olive oil, respectively, by a maximization method to perform sensitization induction.
Thereafter, in order to induce sufficient immunoresponse, after a grace period of 10 days from the day when the final sensitization was made, there was applied to the back skin of each guinea pig a patch plate having 1.5 cm diameter coated with 100 μl of an aromatic compound derivative of triterpenoid to a concentration of 3 w/v % in olive oil, an aromatic compound derivative of triterpenoid to a concentration of 0.3 w/v % in olive oil, or neat olive oil, and the patch plate was removed after 24 hours. The resulting skin reaction after 24 hours from the removal of the patch plate was evaluated according to the following evaluation criteria and an average score was calculated for each test group.
as §1, §2, §3, §4

[4] = skin reaction 24 hours after plaster removal, 10% by weight in white vaseline, 24 hours' closed patch, average of 6 guinea pigs, scale 0-4
[5] = skin reaction immediately after plaster removal, 10% by weight in white vaseline, 24 hours' closed patch, average of 6 guinea pigs, scale 0-4
[6] = 3%-challenge patch, 3 w/v % in olive oil

CC1(C)CC[C@]2(C(=O)OC(c3ccccc3)c3ccccc3)CC[C@]3(C)C(=CC[C@@H]4[C@@]5(C)CC[C@H](O)C(C)(C)[C@@H]5CC[C@]43C)[C@@H]2C1 [Diphenylmethyl oleanolate, diphenylmethyl oleanolate]
Score (Average) After 24 hours (Hartley guinea pigs [1]; [4]): 0
Score (Average) After 0 hour (Hartley guinea pigs [1]; [5]): 0

CC1(C)CC[C@]2(C(=O)O)CC[C@]3(C)C(=CC[C@@H]4[C@@]5(C)CC[C@H](OC(=O)c6ccccc6)C(C)(C)[C@@H]5CC[C@]43C)[C@@H]2C1 [Benzoyl oleanolate, benzoyl oleanolate]
Number of Mice (number) + ([2]; 0.01 w/v% in ethanol): 6 number
Number of Mice (number) ± ([2]; 0.01 w/v% in ethanol): 4 number
Number of Mice (number) − ([2]; 0.01 w/v% in ethanol): 0 number
Score (Average) After 24 hours (Hartley guinea pigs [1]; [4]): 0
Score (Average) After 0 hour (Hartley guinea pigs [1]; [5]): 0
Evaluation Score (Average), 3%-induced group (Hartley guinea pigs [3]; 0.3%-challenge patch): 0
Evaluation Score (Average), Olive oil induced group (Hartley guinea pigs [3]; 0.3%-challenge patch): 0
Evaluation Score (Average), 0.3%-induced group (Hartley guinea pigs [3]; 0.3%-sensitized group): 0
Evaluation Score (Average), 3%-induced group (Hartley guinea pigs [3]; [6]): 0
Evaluation Score (Average), Olive oil induced group (Hartley guinea pigs [3]; 3%-challenge patch): 0
Evaluation Score (Average), 0.3%-induced group (Hartley guinea pigs [3]; 3%-sensitized group): 0
Evaluation Score (Average), 3%-induced group (Hartley guinea pigs [3]; Olive oil-challenge patch): 0
Evaluation Score (Average), 0.3%-induced group (Hartley guinea pigs [3]; Olive oil-sensitized group): 0

CCCCCCCCCCCCCCCC(=O)OC1CCC2(C)C(CCC3(C)C2CC=C2C4CC(C)(C)CCC4(C(=O)O)CCC23C)C1(C)C (stereo not drawn) [Palmitoyl oleanolate, palmitoyl oleanolate, reference compound]
Number of Mice (number) + ([2]; 1.0 w/v% in ethanol): 7 number
Number of Mice (number) ± ([2]; 1.0 w/v% in ethanol): 3 number
Number of Mice (number) − ([2]; 1.0 w/v% in ethanol): 0 number

naphthylmethyl ursolate
Score (Average) After 24 hours (Hartley guinea pigs [1]; [4]): 0
Score (Average) After 0 hour (Hartley guinea pigs [1]; [5]): 0

C[C@H]1[C@H](C)CC[C@]2(C(=O)O)CC[C@]3(C)C(=CC[C@@H]4[C@@]5(C)CC[C@H](OC(=O)CCc6ccccc6)C(C)(C)[C@@H]5CC[C@]43C)[C@H]12 [Phenylpropionyl ursolate, phenylpropionyl ursolate]
Number of Mice (number) + ([2]; 0.05 w/v% in ethanol): 7 number
Number of Mice (number) ± ([2]; 0.05 w/v% in ethanol): 3 number
Number of Mice (number) − ([2]; 0.05 w/v% in ethanol): 0 number
Score (Average) After 24 hours (Hartley guinea pigs [1]; [4]): 0
Score (Average) After 0 hour (Hartley guinea pigs [1]; [5]): 0
Evaluation Score (Average), 3%-induced group (Hartley guinea pigs [3]; 0.3%-challenge patch): 0.17
Evaluation Score (Average), Olive oil induced group (Hartley guinea pigs [3]; 0.3%-challenge patch): 0
Evaluation Score (Average), 0.3%-induced group (Hartley guinea pigs [3]; 0.3%-sensitized group): 0
Evaluation Score (Average), 3%-induced group (Hartley guinea pigs [3]; [6]): 0
Evaluation Score (Average), Olive oil induced group (Hartley guinea pigs [3]; 3%-challenge patch): 0
Evaluation Score (Average), 0.3%-induced group (Hartley guinea pigs [3]; 3%-sensitized group): 0
Evaluation Score (Average), 3%-induced group (Hartley guinea pigs [3]; Olive oil-challenge patch): 0
Evaluation Score (Average), 0.3%-induced group (Hartley guinea pigs [3]; Olive oil-sensitized group): 0

C[C@H]1[C@H](C)CC[C@]2(C(=O)OCc3ccccc3)CC[C@]3(C)C(=CC[C@@H]4[C@@]5(C)CC[C@H](O)C(C)(C)[C@@H]5CC[C@]43C)[C@H]12 [Benzyl ursolate, benzyl ursolate]
Number of Mice (number) + ([2]; 0.005 w/v% in ethanol, 100 μl once a day 5 days a week): 9 number
Number of Mice (number) ± ([2]; 0.005 w/v% in ethanol): 1 number
Number of Mice (number) − ([2]; 0.005 w/v% in ethanol): 0 number
Score (Average) After 24 hours (Hartley guinea pigs [1]; [4]): 0
Score (Average) After 0 hour (Hartley guinea pigs [1]; [5]): 0
Evaluation Score (Average), 3%-induced group (Hartley guinea pigs [3]; 0.3%-challenge patch): 0
Evaluation Score (Average), Olive oil induced group (Hartley guinea pigs [3]; 0.3%-challenge patch): 0
Evaluation Score (Average), 0.3%-induced group (Hartley guinea pigs [3]; 0.3%-sensitized group): 0.17
Evaluation Score (Average), 3%-induced group (Hartley guinea pigs [3]; [6]): 0.17
Evaluation Score (Average), Olive oil induced group (Hartley guinea pigs [3]; 3%-challenge patch): 0.33
Evaluation Score (Average), 0.3%-induced group (Hartley guinea pigs [3]; 3%-sensitized group): 0
Evaluation Score (Average), 3%-induced group (Hartley guinea pigs [3]; Olive oil-challenge patch): 0
Evaluation Score (Average), 0.3%-induced group (Hartley guinea pigs [3]; Olive oil-sensitized group): 0

C=C(C)C1CCC2(C(=O)O)CCC3(C)C(CCC4C5(C)CCC(OC(=O)c6ccc(OC)cc6)C(C)(C)C5CCC43C)C12 (stereo not drawn) [Methoxybenzoyl betulate, methoxybenzoyl betulate]
Number of Mice (number) + ([2]; 0.01 w/v% in ethanol): 8 number
Number of Mice (number) ± ([2]; 0.01 w/v% in ethanol): 2 number
Number of Mice (number) − ([2]; 0.01 w/v% in ethanol): 0 number
Score (Average) After 0 hour (Hartley guinea pigs [1]; guinea pig, in vivo): 0
Score (Average) After 24 hours (Hartley guinea pigs [1]; guinea pig, in vivo): 0

COc1ccc(COC(=O)[C@]23CCC(C)(C)C[C@H]2C2=CC[C@@H]4[C@@]5(C)CC[C@H](O)C(C)(C)[C@@H]5CC[C@@]4(C)[C@]2(C)CC3)cc1 [Methoxybenzyl oleanolate, methoxybenzyl oleanolate]
Number of Mice (number) + ([2]; 0.01 w/v% in ethanol): 7 number
Number of Mice (number) ± ([2]; 0.01 w/v% in ethanol): 3 number
Number of Mice (number) − ([2]; 0.01 w/v% in ethanol): 0 number
Score (Average) After 24 hours (Hartley guinea pigs [1]; [4]): 0
Score (Average) After 0 hour (Hartley guinea pigs [1]; [5]): 0
Evaluation Score (Average), 3%-induced group (Hartley guinea pigs [3]; 0.3%-challenge patch): 0
Evaluation Score (Average), Olive oil induced group (Hartley guinea pigs [3]; 0.3%-challenge patch): 0.17
Evaluation Score (Average), 0.3%-induced group (Hartley guinea pigs [3]; 0.3%-sensitized group): 0
Evaluation Score (Average), 3%-induced group (Hartley guinea pigs [3]; [6]): 0.33
Evaluation Score (Average), Olive oil induced group (Hartley guinea pigs [3]; 3%-challenge patch): 0.17
Evaluation Score (Average), 0.3%-induced group (Hartley guinea pigs [3]; 3%-sensitized group): 0
Evaluation Score (Average), 3%-induced group (Hartley guinea pigs [3]; Olive oil-challenge patch): 0.17
Evaluation Score (Average), 0.3%-induced group (Hartley guinea pigs [3]; Olive oil-sensitized group): 0.17

C=C(C)C1CCC2(C(=O)OCc3ccc(-c4ccccc4)cc3)CCC3(C)C(CCC4C5(C)CCC(O)C(C)(C)C5CCC43C)C12 (stereo not drawn) [Phenylbenzyl betulate, phenylbenzyl betulate]
Number of Mice (number) + ([2]; 0.05 w/v% in ethanol): 8 number
Number of Mice (number) ± ([2]; 0.05 w/v% in ethanol): 2 number
Number of Mice (number) − ([2]; 0.05 w/v% in ethanol): 0 number

C=C(C)C1CCC2(C(=O)OCc3ccc([N+](=O)[O-])cc3)CCC3(C)C(CCC4C5(C)CCC(O)C(C)(C)C5CCC43C)C12 (stereo not drawn) [Nitrobenzyl betulate, nitrobenzyl betulate]
Score (Average) After 0 hour (Hartley guinea pigs [1]; guinea pig, in vivo): 0
Score (Average) After 24 hours (Hartley guinea pigs [1]; guinea pig, in vivo): 0

CCCCC(CC)COC(=O)[C@]12CC[C@@H](C)[C@H](C)[C@H]1C1=CC[C@@H]3[C@@]4(C)CC[C@H](OC(=O)C(CC)CCCC)C(C)(C)[C@@H]4CC[C@@]3(C)[C@]1(C)CC2 (stereo partly drawn) [2-Ethylhexyl 2-ethylhexanoyl ursolate, 2-ethylhexyl 2-ethylhexanoyl ursolate, reference compound]
Number of Mice (number) + ([2]; 1.0 w/v% in ethanol): 6 number
Number of Mice (number) ± ([2]; 1.0 w/v% in ethanol): 4 number
Number of Mice (number) − ([2]; 1.0 w/v% in ethanol): 0 number
